Tests used:
[1] = molecular target: Type-1 angiotensin II receptor (Homo sapiens) (UniProt P30556); experiment: Angiotensin AT1 Eurofins-Panlabs radioligand binding assay; settings: Compound concentration 10.0 uM
[2] = molecular target: Mitogen-activated protein kinase 15 (Homo sapiens) (UniProt Q8TD08); experiment: ERK8 DiscoveRx kinase panel; settings: Compound concentration 1.0 uM
[3] = molecular target: Beta-3 adrenergic receptor (Homo sapiens) (UniProt P13945); settings: Compound concentration 10.0 uM
[4] = molecular target: Serine/threonine-protein kinase Nek7 (Homo sapiens) (UniProt Q8TDX7); experiment: NEK7 DiscoveRx kinase panel; settings: Compound concentration 1.0 uM
[5] = molecular target: Serine/threonine-protein kinase 32C (Homo sapiens) (UniProt Q86UX6); experiment: YANK3 DiscoveRx kinase panel; settings: Compound concentration 1.0 uM
[6] = molecular target: Platelet-activating factor receptor (Homo sapiens) (UniProt P25105); experiment: Inhibition of Platelet Activating Factor (PAF) at 10 µM in the Eurofins-Panlabs radioligand binding assay (Eurofins_assay_265010); settings: Compound concentration 10.0 uM
[7] = molecular target: B2 bradykinin receptor (Homo sapiens) (UniProt P30411); experiment: Bradykinin B2 Eurofins-Panlabs radioligand binding assay; settings: Compound concentration 10.0 uM
[8] = molecular target: Mitogen-activated protein kinase kinase kinase 11 (Homo sapiens) (UniProt Q16584); experiment: MLK3 DiscoveRx kinase panel; settings: Compound concentration 1.0 uM
[9] = molecular target: Activin receptor type-2B (Homo sapiens) (UniProt Q13705); experiment: ACVR2B DiscoveRx kinase panel; settings: Compound concentration 1.0 uM
[10] = molecular target: Peripheral plasma membrane protein CASK (Homo sapiens) (UniProt O14936); experiment: CASK DiscoveRx kinase panel; settings: Compound concentration 1.0 uM
[11] = molecular target: Receptor tyrosine-protein kinase erbB-3 (Homo sapiens) (UniProt P21860); experiment: ERBB3 DiscoveRx kinase panel; settings: Compound concentration 1.0 uM
[12] = molecular target: Casein kinase I isoform gamma-3 (Homo sapiens) (UniProt Q9Y6M4); experiment: CSNK1G3 DiscoveRx kinase panel; settings: Compound concentration 1.0 uM
[13] = molecular target: Cannabinoid receptor 1 (Homo sapiens) (UniProt P21554); settings: Compound concentration 10.0 uM
[14] = molecular target: Activin receptor type-1-like (Homo sapiens) (UniProt P37023); experiment: ACVRL1 DiscoveRx kinase panel; settings: Compound concentration 1.0 uM
[15] = system: HeLa; experiment: HeLa cell line Proliferation assay; type: functional, Homo sapiens; settings: time 4 day
[16] = molecular target: Protein-tyrosine kinase 2-beta (Homo sapiens) (UniProt Q14289); experiment: PYK2 DiscoveRx kinase panel; settings: Compound concentration 1.0 uM
[17] = molecular target: Glutamate NMDA receptor (Rattus norvegicus) (UniProt P35439+Q00959+Q00960+Q00961+Q62645+Q8VHN2+Q9R1M7); settings: Compound concentration 10.0 uM
[18] = system: eIF-2-alpha kinase GCN2 (Homo sapiens), Q9P2K8 [S808G]; experiment: GCN2(Kin.Dom.2,S808G) DiscoveRx kinase panel; settings: Compound concentration 1.0 uM
[19] = molecular target: Protein kinase C iota type (Homo sapiens) (UniProt P41743); experiment: PRKCI DiscoveRx kinase panel; settings: Compound concentration 1.0 uM
[20] = system: MDA-MB-436; experiment: MDA-MB-436 cell line Proliferation assay; type: functional, Homo sapiens; settings: time 4 day
[21] = molecular target: Activin receptor type-2A (Homo sapiens) (UniProt P27037); experiment: ACVR2A DiscoveRx kinase panel; settings: Compound concentration 1.0 uM
[22] = molecular target: Dual specificity protein kinase CLK1 (Homo sapiens) (UniProt P49759); experiment: CLK1 DiscoveRx kinase panel; settings: Compound concentration 1.0 uM
[23] = molecular target: Dual specificity mitogen-activated protein kinase kinase 1 (Homo sapiens) (UniProt Q02750); experiment: MEK1 DiscoveRx kinase panel; settings: Compound concentration 1.0 uM
[24] = molecular target: LIM domain kinase 1 (Homo sapiens) (UniProt P53667); experiment: LIMK1 DiscoveRx kinase panel; settings: Compound concentration 1.0 uM
[25] = molecular target: Mitogen-activated protein kinase 13 (Homo sapiens) (UniProt O15264); experiment: p38-delta DiscoveRx kinase panel; settings: Compound concentration 1.0 uM
[26] = molecular target: Rho-associated protein kinase 1 (Homo sapiens) (UniProt Q13464); experiment: ROCK1 DiscoveRx kinase panel; settings: Compound concentration 1.0 uM
[27] = molecular target: Non-receptor tyrosine-protein kinase TYK2 (Homo sapiens) (UniProt P29597); experiment: TYK2(JH2domain-pseudokinase) DiscoveRx kinase panel; settings: Compound concentration 1.0 uM
[28] = molecular target: G protein-coupled receptor kinase 4 (Homo sapiens) (UniProt P32298); experiment: GRK4 DiscoveRx kinase panel; settings: Compound concentration 1.0 uM
[29] = molecular target: Mitogen-activated protein kinase kinase kinase 3 (Homo sapiens) (UniProt Q99759); experiment: MAP3K3 DiscoveRx kinase panel; settings: Compound concentration 1.0 uM
[30] = molecular target: cGMP-dependent protein kinase 1 (Homo sapiens) (UniProt Q13976); experiment: PRKG1 DiscoveRx kinase panel; settings: Compound concentration 1.0 uM
[31] = molecular target: Cyclin-dependent kinase 4 (Homo sapiens) (UniProt P11802); experiment: CDK4 DiscoveRx kinase panel; settings: Compound concentration 1.0 uM
[32] = molecular target: Prostaglandin G/H synthase 1 (Homo sapiens) (UniProt P23219); experiment: Inhibition of Cyclooxygenase COX-1 at compound concentration of 10.0 uM in the Eurofins-Panlabs enzyme assay (Eurofins_assay_116020); settings: Compound concentration 10.0 uM
[33] = molecular target: Mitotic checkpoint serine/threonine-protein kinase BUB1 (Homo sapiens, UniProt O43683); experiment: BUB1 biochemical assay (high ATP)
[34] = molecular target: Mitogen-activated protein kinase 9 (Homo sapiens) (UniProt P45984); experiment: JNK2 DiscoveRx kinase panel; settings: Compound concentration 1.0 uM
[35] = molecular target: Phosphatidylinositol 4,5-bisphosphate 3-kinase catalytic subunit alpha isoform (Homo sapiens) (UniProt P42336); experiment: PIK3CA DiscoveRx kinase panel; settings: Compound concentration 1.0 uM
[36] = molecular target: Mast/stem cell growth factor receptor Kit (Homo sapiens) (UniProt P10721); experiment: KIT DiscoveRx kinase panel; settings: Compound concentration 1.0 uM
[37] = molecular target: STE20/SPS1-related proline-alanine-rich protein kinase (Homo sapiens) (UniProt Q9UEW8); experiment: STK39 DiscoveRx kinase panel; settings: Compound concentration 1.0 uM
[38] = molecular target: Cyclin-dependent kinase 3 (Homo sapiens) (UniProt Q00526); experiment: CDK3 DiscoveRx kinase panel; settings: Compound concentration 1.0 uM
[39] = molecular target: Histamine H1 receptor (Homo sapiens) (UniProt P35367); settings: Compound concentration 10.0 uM
[40] = molecular target: Receptor-interacting serine/threonine-protein kinase 1 (Homo sapiens) (UniProt Q13546); experiment: RIPK1 DiscoveRx kinase panel; settings: Compound concentration 1.0 uM
[41] = molecular target: Alpha-1D adrenergic receptor (Homo sapiens, UniProt P25100); experiment: GPCRScan assay: inhibition of Alpha1D; design: radioligand conc. used [nm] 0.3 – 1.0, parental cells stable
[42] = molecular target: Mitogen-activated protein kinase kinase kinase 14 (Homo sapiens) (UniProt Q99558); experiment: NIK DiscoveRx kinase panel; settings: Compound concentration 1.0 uM
[43] = system: MDA-MB-468; experiment: MDA-MB-468 cell line Proliferation assay; type: functional, Homo sapiens; settings: time 4 day
[44] = molecular target: Ephrin type-B receptor 1 (Homo sapiens) (UniProt P54762); experiment: EPHB1 DiscoveRx kinase panel; settings: Compound concentration 1.0 uM
[45] = molecular target: Acetylcholine receptor subunit alpha (Homo sapiens) (UniProt P02708); experiment: Inhibition of Nicotinic Acetylcholine D1, Bungarotoxin at 10 µM in the Eurofins-Panlabs radioligand binding assay (Eurofins_assay_258700); settings: Compound concentration 10.0 uM
[46] = molecular target: Tyrosine-protein kinase receptor TYRO3 (Homo sapiens) (UniProt Q06418); experiment: TYRO3 DiscoveRx kinase panel; settings: Compound concentration 1.0 uM
[47] = molecular target: Insulin receptor-related protein (Homo sapiens) (UniProt P14616); experiment: INSRR DiscoveRx kinase panel; settings: Compound concentration 1.0 uM
[48] = molecular target: Ribosomal protein S6 kinase alpha-1 (Homo sapiens) (UniProt Q15418); experiment: RSK1(Kin.Dom.1-N-terminal) DiscoveRx kinase panel; settings: Compound concentration 1.0 uM
Sequence of Ribosomal protein S6 kinase alpha-1 (Homo sapiens) (Q15418 whole entry): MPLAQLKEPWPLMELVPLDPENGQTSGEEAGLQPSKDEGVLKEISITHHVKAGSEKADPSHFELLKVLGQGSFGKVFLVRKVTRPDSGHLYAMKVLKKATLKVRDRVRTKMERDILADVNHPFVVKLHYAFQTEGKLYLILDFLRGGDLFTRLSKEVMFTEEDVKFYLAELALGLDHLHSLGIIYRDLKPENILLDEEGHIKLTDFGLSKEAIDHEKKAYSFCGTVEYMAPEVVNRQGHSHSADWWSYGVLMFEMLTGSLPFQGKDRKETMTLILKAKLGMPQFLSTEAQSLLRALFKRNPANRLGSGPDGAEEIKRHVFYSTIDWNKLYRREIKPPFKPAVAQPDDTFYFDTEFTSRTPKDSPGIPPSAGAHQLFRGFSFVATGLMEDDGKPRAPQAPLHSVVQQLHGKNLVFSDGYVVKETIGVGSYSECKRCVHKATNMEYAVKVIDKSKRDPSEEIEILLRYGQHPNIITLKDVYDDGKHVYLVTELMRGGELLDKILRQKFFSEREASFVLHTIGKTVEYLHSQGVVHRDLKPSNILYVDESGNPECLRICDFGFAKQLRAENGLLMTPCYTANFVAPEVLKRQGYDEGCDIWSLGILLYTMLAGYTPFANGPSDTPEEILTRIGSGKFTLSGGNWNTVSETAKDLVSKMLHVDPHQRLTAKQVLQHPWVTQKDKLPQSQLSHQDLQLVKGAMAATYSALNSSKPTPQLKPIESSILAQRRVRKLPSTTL

Sequence of Alpha-1D adrenergic receptor (P25100 whole entry): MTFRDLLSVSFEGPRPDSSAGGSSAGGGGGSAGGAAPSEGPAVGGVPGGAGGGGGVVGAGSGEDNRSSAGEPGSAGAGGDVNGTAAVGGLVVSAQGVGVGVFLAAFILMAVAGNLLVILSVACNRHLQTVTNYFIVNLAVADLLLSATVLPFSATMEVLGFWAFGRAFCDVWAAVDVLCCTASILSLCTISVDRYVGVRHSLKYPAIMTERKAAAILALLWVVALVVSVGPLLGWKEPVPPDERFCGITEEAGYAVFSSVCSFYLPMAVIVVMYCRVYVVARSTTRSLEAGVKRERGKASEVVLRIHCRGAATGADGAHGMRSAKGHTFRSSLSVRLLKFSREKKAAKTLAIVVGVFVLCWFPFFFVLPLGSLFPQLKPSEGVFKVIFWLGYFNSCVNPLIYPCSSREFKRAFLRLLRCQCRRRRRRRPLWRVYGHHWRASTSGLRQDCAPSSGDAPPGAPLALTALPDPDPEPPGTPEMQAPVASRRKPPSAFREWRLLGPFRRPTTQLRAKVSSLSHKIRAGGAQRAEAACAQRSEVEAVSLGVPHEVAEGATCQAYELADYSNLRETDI
Sequence of Tyrosine-protein kinase receptor TYRO3 (Homo sapiens) (Q06418 whole entry): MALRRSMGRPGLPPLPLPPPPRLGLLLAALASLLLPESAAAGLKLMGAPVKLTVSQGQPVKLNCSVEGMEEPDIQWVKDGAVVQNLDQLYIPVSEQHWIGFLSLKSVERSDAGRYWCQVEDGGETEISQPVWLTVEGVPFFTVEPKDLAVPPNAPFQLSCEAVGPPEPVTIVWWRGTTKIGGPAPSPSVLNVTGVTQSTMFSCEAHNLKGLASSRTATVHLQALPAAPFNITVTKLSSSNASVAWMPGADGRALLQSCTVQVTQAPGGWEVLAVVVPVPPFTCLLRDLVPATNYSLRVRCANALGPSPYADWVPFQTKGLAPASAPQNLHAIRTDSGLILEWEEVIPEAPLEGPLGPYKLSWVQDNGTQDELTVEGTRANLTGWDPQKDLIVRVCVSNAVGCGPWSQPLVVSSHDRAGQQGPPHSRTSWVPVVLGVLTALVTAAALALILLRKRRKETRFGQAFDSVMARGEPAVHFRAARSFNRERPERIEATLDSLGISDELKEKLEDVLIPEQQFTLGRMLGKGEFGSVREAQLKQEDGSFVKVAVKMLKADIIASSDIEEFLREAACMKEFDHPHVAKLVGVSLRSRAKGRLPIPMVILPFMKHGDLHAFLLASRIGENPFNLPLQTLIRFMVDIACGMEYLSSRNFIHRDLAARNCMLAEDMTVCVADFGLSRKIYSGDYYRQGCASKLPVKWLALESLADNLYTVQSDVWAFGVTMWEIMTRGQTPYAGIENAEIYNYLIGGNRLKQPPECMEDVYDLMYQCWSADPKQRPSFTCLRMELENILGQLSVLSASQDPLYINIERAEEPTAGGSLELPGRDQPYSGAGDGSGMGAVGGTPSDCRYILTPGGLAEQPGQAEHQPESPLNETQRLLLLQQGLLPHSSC
Sequence of Platelet-activating factor receptor (Homo sapiens) (P25105 whole entry): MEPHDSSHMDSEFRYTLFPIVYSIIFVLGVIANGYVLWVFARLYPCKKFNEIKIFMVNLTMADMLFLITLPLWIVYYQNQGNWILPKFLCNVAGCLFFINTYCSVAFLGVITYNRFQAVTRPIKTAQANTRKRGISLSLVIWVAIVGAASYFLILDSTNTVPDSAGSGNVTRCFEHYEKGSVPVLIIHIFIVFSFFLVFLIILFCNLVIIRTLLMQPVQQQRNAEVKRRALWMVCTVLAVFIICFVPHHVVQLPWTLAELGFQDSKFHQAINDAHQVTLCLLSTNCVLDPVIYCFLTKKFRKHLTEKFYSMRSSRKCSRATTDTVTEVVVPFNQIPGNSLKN
Sequence of Mitotic checkpoint serine/threonine-protein kinase BUB1 (O43683 whole entry): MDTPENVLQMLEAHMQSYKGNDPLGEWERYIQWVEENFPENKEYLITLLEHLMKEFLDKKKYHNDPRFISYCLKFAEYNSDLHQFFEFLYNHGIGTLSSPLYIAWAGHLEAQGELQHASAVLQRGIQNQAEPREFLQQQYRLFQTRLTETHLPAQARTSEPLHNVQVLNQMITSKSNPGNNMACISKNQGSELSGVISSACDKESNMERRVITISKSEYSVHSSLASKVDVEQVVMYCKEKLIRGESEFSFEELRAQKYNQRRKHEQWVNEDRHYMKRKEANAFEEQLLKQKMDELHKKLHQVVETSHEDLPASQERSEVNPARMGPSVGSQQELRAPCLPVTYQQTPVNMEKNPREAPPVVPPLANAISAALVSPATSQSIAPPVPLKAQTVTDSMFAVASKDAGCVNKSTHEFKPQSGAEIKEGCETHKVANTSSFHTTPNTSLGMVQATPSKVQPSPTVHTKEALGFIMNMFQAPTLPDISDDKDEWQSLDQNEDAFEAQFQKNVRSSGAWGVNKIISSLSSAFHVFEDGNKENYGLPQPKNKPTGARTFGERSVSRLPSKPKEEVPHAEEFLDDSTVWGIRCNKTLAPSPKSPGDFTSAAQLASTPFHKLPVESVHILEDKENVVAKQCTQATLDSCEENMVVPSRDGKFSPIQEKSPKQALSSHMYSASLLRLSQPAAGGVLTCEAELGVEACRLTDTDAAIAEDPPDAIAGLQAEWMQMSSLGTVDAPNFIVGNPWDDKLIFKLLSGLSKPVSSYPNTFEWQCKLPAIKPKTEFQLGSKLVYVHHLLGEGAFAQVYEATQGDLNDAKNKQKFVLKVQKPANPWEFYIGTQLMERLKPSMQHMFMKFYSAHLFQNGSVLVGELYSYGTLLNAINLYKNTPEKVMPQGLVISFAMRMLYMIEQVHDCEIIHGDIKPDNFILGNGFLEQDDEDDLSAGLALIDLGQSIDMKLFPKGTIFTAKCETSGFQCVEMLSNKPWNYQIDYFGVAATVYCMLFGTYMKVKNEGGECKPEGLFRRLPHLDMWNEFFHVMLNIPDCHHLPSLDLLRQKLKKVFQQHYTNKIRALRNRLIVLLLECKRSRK
Sequence of Insulin receptor-related protein (Homo sapiens) (P14616 27-742 limits assumed): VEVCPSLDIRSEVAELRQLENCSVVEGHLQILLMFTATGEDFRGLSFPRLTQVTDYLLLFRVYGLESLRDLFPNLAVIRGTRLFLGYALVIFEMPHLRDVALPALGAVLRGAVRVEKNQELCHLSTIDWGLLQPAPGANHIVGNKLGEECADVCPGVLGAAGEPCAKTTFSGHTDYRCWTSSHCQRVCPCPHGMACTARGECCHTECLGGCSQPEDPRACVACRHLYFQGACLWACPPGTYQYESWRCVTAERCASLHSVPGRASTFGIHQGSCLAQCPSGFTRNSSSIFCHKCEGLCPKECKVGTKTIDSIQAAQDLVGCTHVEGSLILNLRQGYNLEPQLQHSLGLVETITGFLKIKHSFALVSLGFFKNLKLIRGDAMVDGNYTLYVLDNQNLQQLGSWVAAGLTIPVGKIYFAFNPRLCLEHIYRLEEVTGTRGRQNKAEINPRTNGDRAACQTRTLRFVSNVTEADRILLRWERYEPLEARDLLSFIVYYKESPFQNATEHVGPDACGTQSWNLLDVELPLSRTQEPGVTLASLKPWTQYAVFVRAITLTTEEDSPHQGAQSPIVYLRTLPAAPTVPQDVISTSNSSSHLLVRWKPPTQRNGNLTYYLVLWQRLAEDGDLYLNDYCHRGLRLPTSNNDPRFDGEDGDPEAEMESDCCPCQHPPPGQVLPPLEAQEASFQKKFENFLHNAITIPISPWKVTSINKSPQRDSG
Sequence of Insulin receptor-related protein (Homo sapiens) (P14616 747-1297 limits assumed): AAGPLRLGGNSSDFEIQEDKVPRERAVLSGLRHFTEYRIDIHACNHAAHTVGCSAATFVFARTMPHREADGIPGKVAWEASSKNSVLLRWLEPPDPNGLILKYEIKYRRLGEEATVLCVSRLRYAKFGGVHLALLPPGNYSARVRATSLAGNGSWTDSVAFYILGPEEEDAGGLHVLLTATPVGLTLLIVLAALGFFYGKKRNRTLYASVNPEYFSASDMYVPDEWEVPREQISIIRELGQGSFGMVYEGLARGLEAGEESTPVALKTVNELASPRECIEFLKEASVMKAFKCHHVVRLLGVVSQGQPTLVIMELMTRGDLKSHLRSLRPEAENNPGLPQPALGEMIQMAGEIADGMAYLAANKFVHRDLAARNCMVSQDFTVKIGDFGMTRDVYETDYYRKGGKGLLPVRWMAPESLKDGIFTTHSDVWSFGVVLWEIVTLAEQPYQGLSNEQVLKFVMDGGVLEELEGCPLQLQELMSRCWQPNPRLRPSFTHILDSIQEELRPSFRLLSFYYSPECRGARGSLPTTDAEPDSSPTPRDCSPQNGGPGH

COc1cnccc1Nc1nc(-c2nn(Cc3c(F)cc(OCCO)cc3F)c3ccccc23)ncc1OC
inhibition [1]: -2%
residual activity [2]: 100%
inhibition [3]: 4.26%
residual activity [4]: 78%
residual activity [5]: 72%
inhibition [6]: 28%
inhibition [7]: 0%
residual activity [8]: 100%
residual activity [9]: 94%
residual activity [10]: 78%
residual activity [11]: 70%
residual activity [12]: 100%
inhibition [13]: -6%
residual activity [14]: 69%
Cell Proliferation IC50 [15]: 1600 nM
residual activity [16]: 95%
inhibition [17]: -2%
residual activity [18]: 91%
residual activity [19]: 87%
Cell Proliferation IC50 [20]: 1200 nM
residual activity [21]: 100%
residual activity [22]: 100%
residual activity [23]: 97%
residual activity [24]: 86%
residual activity [25]: 99%
residual activity [26]: 100%
residual activity [27]: 100%
residual activity [28]: 79%
residual activity [29]: 95%
residual activity [30]: 74%
residual activity [31]: 100%
inhibition [32]: 54%
IC50 [33]: 1900 nM (not active)
residual activity [34]: 39%
residual activity [35]: 100%
residual activity [36]: 82%
residual activity [37]: 97%
residual activity [38]: 99%
inhibition [39]: 16.9%
residual activity [40]: 97%
Ki [41]: > 10000 nM
pKi [41]: < 5
residual activity [42]: 100%
Cell Proliferation IC50 [43]: 1000 nM
residual activity [44]: 100%
inhibition [45]: 14%
residual activity [46]: 56%
residual activity [47]: 96%
residual activity [48]: 80%
